The numbers were not newly measured in patent US20110136157A1, “Copper regulation evaluation and therapy” (priority 2005, published 2011), which cites them from elsewhere.

Data set [1] has as its system Wilson's disease patients. The note with it: long-term use.

Like-named read-outs stand apart in the source and are kept apart here.

As for `CC(C)(S)[C@@H](N)C(=O)O` [Penicillamine, 3-mercapto-D-valine], the solubility result (alcohol) is “slightly soluble in alcohol” and the solubility entry (water) is given as “freely soluble in water”.
Turning to `CC(=O)[O-].CC(=O)[O-].[Zn+2]` [Zinc acetate], the “long-term or major side effects” value in data set [1] is on record as “has not shown any long-term or major side effects”.
